Measured values from patent US8309718B2, “4-pyrazolyl-N-arylpyrimidin-2-amines and 4-pyrazolyl-N-heteroarylpyrimidin-2-amines as janus kinase inhibitors” (Incyte Corporation, priority 2007, dated 2012).

The compounds below were run against T1, human JAK2 (Homo sapiens, UniProt O60674) (assay: In vitro JAK kinase assay (HTRF, phosphorylation of biotinylated peptide)). Settings: catalytic domain a.a. 828-1132, 30 μM ATP, 500 nM peptide, room temperature 1 hr; read-out: JAK-2 IC50.
T1 construct: JAK2 (a.a. 828-1132); His tag (N); made in house; host or cells: insect cells (baculovirus)
T1 sequence (O60674 828-1132): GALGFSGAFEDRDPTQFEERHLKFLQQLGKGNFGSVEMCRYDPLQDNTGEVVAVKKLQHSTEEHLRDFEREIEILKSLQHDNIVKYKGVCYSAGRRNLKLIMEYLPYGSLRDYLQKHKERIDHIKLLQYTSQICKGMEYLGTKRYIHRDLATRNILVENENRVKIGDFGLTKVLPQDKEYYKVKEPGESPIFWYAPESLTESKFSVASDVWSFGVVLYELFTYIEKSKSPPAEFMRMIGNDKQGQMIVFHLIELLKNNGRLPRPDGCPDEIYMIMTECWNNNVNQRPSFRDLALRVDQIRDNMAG
Type: biochemical
Method: Compounds herein were tested for inhibitory activity of JAK targets according to the following in vitro assay described in Park et al, Analytical Biochemistry 1999, 269, 94-104. The catalytic domains of human JAK1 (a.a. 837-1142), JAK2 (a.a. 828-1132) and JAK3 (a.a. 781-1124) with an N-terminal His tag were expressed using baculovirus in insect cells and purified. The catalytic activity of JAK1, JAK2 or JAK3 was assayed by measuring the phosphorylation of a biotinylated peptide. The phosphorylated peptide was detected by homogenous time resolved fluorescence (HTRF). IC50s of compounds were measured for each kinase in the reactions that contain the enzyme, ATP and 500 nM peptide in 50 mM Tris (pH 7.8) buffer with 100 mM NaCl, 5 mM DTT, and 0.1 mg/mL (0.01%) BSA. The ATP concentration in the reactions was 90 μM for JAK1, 30 μM for Jak2 and 3 μM for JAK3. Reactions were carried out at room temperature for 1 hr and then stopped with 20 μL 45 mM EDTA, 300 nM SA-APC, 6 nM Eu-Py20 in assay buffer (Perkin Elmer, Boston, Mass.). Binding to the Europium labeled antibody took place for 40 minutes and HTRF signal was measured on a Fusion plate reader (Perkin Elmer, Boston, Mass.). Certain of the above compounds were tested according to this assay.

SMILES | IC50 [nM]
COCC(C)NCC(=O)Nc1ccc(Nc2nccc(-c3cnn(C(CC#N)C4CCCC4)c3)n2)cc1 (mixture of isomers) [Example 211, N-(4-(4-(1-(2-cyano-1-cyclopentylethyl)-1H-pyrazol-4-yl)pyrimidin-2-ylamino)phenyl)-2-(1-methoxypropan-2-ylamino)acetamide] | < 100
N#CCC(C1CCCC1)n1cc(-c2ccnc(Nc3cccc(C(=O)N4CCC(Oc5ccccc5)CC4)c3)n2)cn1 (racemic) [Example 164, 3-cyclopentyl-3-(4-(2-(3-(4-phenoxypiperidine-1-carbonyl)phenylamino)pyrimidin-4-yl)-1H-pyrazol-1-yl)propanenitrile] | < 100
N#CCC(C1CCOCC1)n1cc(-c2ccnc(Nc3ccc(C(=O)N4CC[C@@H](O)C4)cc3)n2)cn1 (mixture of isomers) [Example 315, 3-(4-{2-[(4-{[(3R)-3-hydroxypyrrolidin-1-yl]carbonyl}phenyl)amino]pyrimidin-4-yl}-1H-pyrazol-1-yl)-3-(tetrahydro-2H-pyran-4-yl)propanenitrile] | < 100
N#CCC(C1CCCC1)n1cc(-c2ccnc(Nc3ccc(N4CCOC4=O)cc3)n2)cn1 (racemic) [Example 107, 3-cyclopentyl-3-(4-(2-(4-(2-oxooxazolidin-3-yl)phenylamino)pyrimidin-4-yl)-1H-pyrazol-1-yl)propanenitrile] | < 100
N#CCC(C1CCCC1)n1cc(-c2ccnc(Nc3ccccc3)n2)cn1 (racemic) [Example 36, 3-cyclopentyl-3-(4-(2-(phenylamino)pyrimidin-4-yl)-1H-pyrazol-1-yl)propanenitrile] | < 100
CC(=O)Nc1ccc(Nc2ncc(C)c(-c3cnn(C(CC#N)C4CCCC4)c3)n2)cc1 (racemic) [Example 76, N-(4-(4-(1-(2-cyano-1-cyclopentylethyl)-1H-pyrazol-4-yl)-5-methylpyrimidin-2-ylamino)phenyl)acetamide] | < 100
N#CCC1(n2cc(-c3ccnc(Nc4cccc(N5CCCC5=O)c4)n3)cn2)CC(C#N)C1 (single isomer, unassigned) [Example 348, 3-(cyanomethyl)-3-[4-(2-{[3-(2-oxopyrrolidin-1-yl)phenyl]amino}pyrimidin-4-yl)-1H-pyrazol-1-yl]cyclobutanecarbonitrile] | < 100
CN1CCN(CC(=O)Nc2cccc(Nc3nccc(-c4cnn(C(CC#N)C5CCCC5)c4)n3)c2)CC1 (racemic) [Example 236, N-(3-(4-(1-(2-cyano-1-cyclopentylethyl)-1H-pyrazol-4-yl)pyrimidin-2-ylamino)phenyl)-2-(4-methylpiperazin-1-yl)acetamide] | < 100
N#CCC(C1CCCC1)n1cc(-c2ccnc(Nc3cccc(NC(=O)CN4CCOCC4)c3)n2)cn1 (racemic) [Example 242, N-(3-(4-(1-(2-cyano-1-cyclopentylethyl)-1H-pyrazol-4-yl)pyrimidin-2-ylamino)phenyl)-2-morpholinoacetamide] | < 100
CCS(=O)(=O)N1CCC(CC(CC#N)n2cc(-c3ccnc(Nc4ccc(N5CCOCC5)cc4)n3)cn2)CC1 (racemic) [Example 42, 4-(1-(ethylsulfonyl)piperidin-4-yl)-3-(4-(2-(4-morpholinophenylamino)pyrimidin-4-yl)-1H-pyrazol-1-yl)butanenitrile] | < 100

More lines, now with the values ahead:

IC50 [nM] | SMILES
< 100 | N#CCC1(n2cc(-c3ccnc(Nc4cccc(-c5cnco5)c4)n3)cn2)CN(S(=O)(=O)C2CC2)C1 [Example 18, 2-(1-(cyclopropylsulfonyl)-3-(4-(2-(3-(oxazol-5-yl)phenylamino)pyrimidin-4-yl)-1H-pyrazol-1-yl)azetidin-3-yl)acetonitrile]
< 100 | N#CCC1(n2cc(-c3ccnc(Nc4cccc(-c5nnn[nH]5)c4)n3)cn2)CCN(C(=O)c2ccno2)CC1 (racemic) [Example 14, 2-(4-(4-(2-(3-(1H-tetrazol-5-yl)phenylamino)pyrimidin-4-yl)-1H-pyrazol-1-yl)-1-(isoxazole-5-carbonyl)piperidin-4-yl)acetonitrile]
< 100 | N#CCC(C1CCN(c2ncc(F)cn2)CC1)n1cc(-c2ccnc(Nc3ccc(N4CCOCC4)cc3)n2)cn1 (racemic) [Example 23, 3-(1-(5-fluoropyrimidin-2-yl)piperidin-4-yl)-3-(4-(2-(4-morpholinophenylamino)pyrimidin-4-yl)-1H-pyrazol-1-yl)propanenitrile]
< 100 | N#CCC1(n2cc(-c3ccnc(Nc4ccc(C(=O)NCCO)cc4)n3)cn2)CCN(S(=O)(=O)C2CC2)CC1 [Example 31, 4-(4-(1-(4-(cyanomethyl)-1-(cyclopropylsulfonyl)piperidin-4-yl)-1H-pyrazol-4-yl)pyrimidin-2-ylamino)-N-(2-hydroxyethyl)benzamide]
< 100 | COc1ccc(Nc2nccc(-c3cnn(C(CC#N)CC4CCN(C(=O)c5ccc(F)cc5F)CC4)c3)n2)cc1 (racemic) [Example 3, 4-(1-(2,4-difluorobenzoyl)piperidin-4-yl)-3-(4-(2-(4-methoxyphenylamino)pyrimidin-4-yl)-1H-pyrazol-1-yl)butanenitrile]
< 100 | N#CCC(C1CCCC1)n1cc(-c2ccnc(Nc3cccc(NC(=O)CN4CCNC(=O)C4)c3)n2)cn1 (racemic) [Example 238, N-(3-(4-(1-(2-cyano-1-cyclopentylethyl)-1H-pyrazol-4-yl)pyrimidin-2-ylamino)phenyl)-2-(3-oxopiperazin-1-yl)acetamide]
< 100 | COC(=O)Nc1cccc(Nc2nccc(-c3cnn(C(CC#N)C4CCCC4)c3)n2)c1 (racemic) [Example 116, Methyl 3-(4-(1-(2-cyano-1-cyclopentylethyl)-1H-pyrazol-4-yl)pyrimidin-2-ylamino)phenylcarbamate]
< 100 | N#CCC(C1CCOCC1)n1cc(-c2ccnc(Nc3ccc(C(=O)N4CCCC4)cc3)n2)cn1 (racemic) [Example 310, 3-[4-(2-{[4-(pyrrolidin-1-ylcarbonyl)phenyl]amino}pyrimidin-4-yl)-1H-pyrazol-1-yl]-3-(tetrahydro-2H-pyran-4-yl)propanenitrile]
< 100 | CCS(=O)(=O)N1CCC(CC(CC#N)n2cc(-c3nc(Nc4ccc(N5CCOCC5)cc4)ncc3C)cn2)CC1 (racemic) [Example 48, 4-(1-(ethylsulfonyl)piperidin-4-yl)-3-(4-(5-methyl-2-(4-morpholinophenylamino)pyrimidin-4-yl)-1H-pyrazol-1-yl)butanenitrile]
< 100 | CC1(C)CCOC12CCN(C(=O)c1ccc(Nc3nccc(-c4cnn(C(CC#N)C5CCCC5)c4)n3)cc1)C2 (mixture of isomers) [Example 220, 3-cyclopentyl-3-(4-(2-(4-(4,4-dimethyl-1-oxa-7-azaspiro[4.4]nonane-7-carbonyl)phenylamino)pyrimidin-4-yl)-1H-pyrazol-1-yl)propanenitrile]
< 100 | N#CCC(C1CCCC1)n1cc(-c2ccnc(Nc3cccc(NC(=O)CN4CC[C@@H](O)C4)c3)n2)cn1 (mixture of isomers) [Example 237, N-(3-(4-(1-(2-cyano-1-cyclopentylethyl)-1H-pyrazol-4-yl)pyrimidin-2-ylamino)phenyl)-2-((R)-3-hydroxypyrrolidin-1-yl)acetamide]
< 100 | CN(C)S(=O)(=O)Nc1cccc(Nc2nccc(-c3cnn(C(CC#N)C4CCCC4)c3)n2)c1 (racemic) [Example 202, NA-(3-(4-(1-(2-cyano-1-cyclopentylethyl)-1H-pyrazol-4-yl)pyrimidin-2-ylamino)phenyl)-N,N-dimethylsulfamide]
